{
  "source": "patent US20260055079A1",
  "about": "“PHTHALAZINONE COMPOUNDS AS PARP7 INHIBITORS” (AZKARRA THERAPEUTICS, INC., priority 2022, published 2026)",
  "key": {"PARP6": {"target": "PARP6 (Homo sapiens (Human), UniProt Q2NL67)", "sequence (Q2NL67 whole entry, species assumed)": "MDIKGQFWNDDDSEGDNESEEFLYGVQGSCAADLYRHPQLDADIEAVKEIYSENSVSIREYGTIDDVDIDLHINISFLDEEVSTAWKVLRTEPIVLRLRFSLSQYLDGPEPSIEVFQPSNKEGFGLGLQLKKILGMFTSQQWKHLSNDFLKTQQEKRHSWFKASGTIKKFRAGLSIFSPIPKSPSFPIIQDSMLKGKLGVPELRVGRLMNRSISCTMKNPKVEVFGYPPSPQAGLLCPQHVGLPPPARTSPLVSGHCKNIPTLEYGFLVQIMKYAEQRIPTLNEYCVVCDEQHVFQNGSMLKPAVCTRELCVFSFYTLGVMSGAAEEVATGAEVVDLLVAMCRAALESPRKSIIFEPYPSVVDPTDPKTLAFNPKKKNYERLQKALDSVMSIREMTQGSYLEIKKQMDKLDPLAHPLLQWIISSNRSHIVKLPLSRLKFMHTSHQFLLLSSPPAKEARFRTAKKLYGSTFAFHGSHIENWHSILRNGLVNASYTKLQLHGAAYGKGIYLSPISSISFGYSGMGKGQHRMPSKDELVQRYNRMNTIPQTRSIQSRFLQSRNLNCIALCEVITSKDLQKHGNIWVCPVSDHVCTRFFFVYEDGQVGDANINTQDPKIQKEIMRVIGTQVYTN", "test": "PASTA biochemical PARP screening assay, PARP6"}, "PARP14wwe": {"target": "PARP14wwe (Homo sapiens, UniProt Q460N5)", "test": "PASTA biochemical PARP screening assay, PARP14wwe"}, "[1]": {"system": "HARA (human lung squamous cell carcinoma) cells", "test": "Cell proliferation assay (CellTiter-Glo), HARA", "format": "cell-based", "settings": "Homo sapiens, 144 h; 6 days, CellTiter-Glo; read-out: HARA GI50"}, "[2]": {"system": "AHR ligand-mediated gene transcription", "test": "CYP1A1 mRNA by qPCR in mouse embryonic fibroblasts", "format": "cell-based", "settings": "MEFs, with or without AHR agonist TCDD", "method": "FIG. 2A provides CYP1A1 mRNA levels assessed by qPCR after treatment of wild type (WT) MEFs with increasing concentrations of Example 10 in the presence (gray bars) or absence (black bars) of the AHR agonist TCDD (1 nM). FIG. 2B provides the same as in FIG. 2A except with PARP7^−/− MEFs. FIG. 2C provides CYP1A1 mRNA levels assessed by qPCR after treatment of wild type (WT) MEFs with increasing concentrations of TCDD in the presence (gray bars) or absence (black bars) of 100 nM Example 10. FIG. 2D provides the same as in FIG. 2C, except with PARP7−/− MEFs."}, "AHR target gene CYP1A1": {"system": "AHR target gene CYP1A1", "test": "CYP1A1 mRNA (AHR target gene) by RT-qPCR in MEFs", "format": "cell-based, mouse", "settings": "WT MEFs"}, "PARP11": {"target": "PARP11 (Homo sapiens (Human), UniProt Q9NR21)", "sequence (Q9NR21 whole entry, species assumed)": "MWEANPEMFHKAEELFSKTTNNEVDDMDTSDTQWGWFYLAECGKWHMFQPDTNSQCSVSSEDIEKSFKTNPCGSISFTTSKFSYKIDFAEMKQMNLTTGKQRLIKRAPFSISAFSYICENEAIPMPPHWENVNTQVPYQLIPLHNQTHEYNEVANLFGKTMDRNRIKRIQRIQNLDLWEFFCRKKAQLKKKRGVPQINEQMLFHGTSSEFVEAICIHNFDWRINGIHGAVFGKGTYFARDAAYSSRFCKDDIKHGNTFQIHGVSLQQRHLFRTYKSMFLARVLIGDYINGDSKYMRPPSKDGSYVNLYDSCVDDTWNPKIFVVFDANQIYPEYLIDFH", "test": "PASTA biochemical PARP screening assay, PARP11"}, "PARP1": {"target": "PARP1 (Homo sapiens (Human), UniProt P09874)", "sequence (P09874 whole entry, species assumed)": "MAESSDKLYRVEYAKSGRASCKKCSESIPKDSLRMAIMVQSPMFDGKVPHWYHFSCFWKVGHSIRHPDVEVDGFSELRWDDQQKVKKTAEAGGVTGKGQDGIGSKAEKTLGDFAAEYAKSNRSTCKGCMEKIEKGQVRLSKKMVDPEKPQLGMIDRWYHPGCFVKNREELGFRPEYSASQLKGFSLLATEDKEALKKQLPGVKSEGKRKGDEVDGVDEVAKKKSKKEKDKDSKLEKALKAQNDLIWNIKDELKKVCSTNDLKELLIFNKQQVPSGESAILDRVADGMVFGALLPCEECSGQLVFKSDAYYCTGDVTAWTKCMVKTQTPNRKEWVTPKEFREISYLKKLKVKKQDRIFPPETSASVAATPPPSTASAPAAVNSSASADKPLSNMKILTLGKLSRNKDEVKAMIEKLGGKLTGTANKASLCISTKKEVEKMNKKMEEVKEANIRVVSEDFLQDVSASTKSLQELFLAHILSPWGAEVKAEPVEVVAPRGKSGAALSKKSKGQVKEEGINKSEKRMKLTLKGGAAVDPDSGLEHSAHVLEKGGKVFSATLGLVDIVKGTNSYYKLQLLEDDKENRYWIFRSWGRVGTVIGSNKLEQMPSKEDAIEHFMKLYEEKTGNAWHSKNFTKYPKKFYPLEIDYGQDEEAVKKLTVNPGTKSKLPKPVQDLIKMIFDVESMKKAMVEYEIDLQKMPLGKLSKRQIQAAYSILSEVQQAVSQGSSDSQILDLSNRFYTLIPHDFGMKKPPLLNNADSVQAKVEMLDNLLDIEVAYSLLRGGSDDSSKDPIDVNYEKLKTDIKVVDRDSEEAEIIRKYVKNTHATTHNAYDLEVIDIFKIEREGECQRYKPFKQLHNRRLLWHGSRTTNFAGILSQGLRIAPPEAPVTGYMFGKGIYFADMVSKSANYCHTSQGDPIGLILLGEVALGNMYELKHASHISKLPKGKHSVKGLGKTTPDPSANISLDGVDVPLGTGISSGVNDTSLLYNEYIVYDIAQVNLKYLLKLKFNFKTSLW", "test": "PASTA biochemical PARP screening assay, PARP1"}, "GST-tagged PARP7": {"target": "GST-tagged PARP7 (Homo sapiens (Human), UniProt Q7Z3E1)", "sequence (Q7Z3E1 whole entry)": "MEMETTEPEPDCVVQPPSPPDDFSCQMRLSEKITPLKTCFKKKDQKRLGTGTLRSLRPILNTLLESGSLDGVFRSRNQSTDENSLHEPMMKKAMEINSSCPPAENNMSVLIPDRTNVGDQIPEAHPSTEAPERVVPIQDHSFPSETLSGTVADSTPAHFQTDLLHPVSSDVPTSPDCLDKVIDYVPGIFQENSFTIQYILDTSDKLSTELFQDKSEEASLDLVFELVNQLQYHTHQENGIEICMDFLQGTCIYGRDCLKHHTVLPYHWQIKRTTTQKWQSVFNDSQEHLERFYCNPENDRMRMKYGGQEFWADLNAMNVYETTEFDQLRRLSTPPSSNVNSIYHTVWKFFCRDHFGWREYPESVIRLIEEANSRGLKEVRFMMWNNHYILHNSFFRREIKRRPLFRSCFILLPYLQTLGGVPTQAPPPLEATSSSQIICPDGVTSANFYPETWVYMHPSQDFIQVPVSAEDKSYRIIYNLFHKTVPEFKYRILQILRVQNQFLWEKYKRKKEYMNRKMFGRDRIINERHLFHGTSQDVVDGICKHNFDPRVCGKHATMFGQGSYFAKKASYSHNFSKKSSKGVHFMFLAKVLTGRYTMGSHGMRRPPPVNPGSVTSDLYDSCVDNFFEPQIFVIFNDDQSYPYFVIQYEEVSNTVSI", "test": "PASTA biochemical PARP screening assay, PARP7", "method": "GST-tagged PARP7 was expressed and purified as previously described (Hutin et al., 2018). Proteins were quantified by an in-gel standard curve of Bovine Serum Albumin (Bio-Rad). For PARP7, 250 ng of PARP7 was adhered to glutathione coated 96-well plates (Thermo Scientific) in PBR for 60 min at RT. […] After washing, varying concentrations of each inhibitor was pre-incubated with 20 μM (2×) 6-a-NAD^+. The solution was added to the plate, diluted to 1× in PBR, and incubated at 30° C. for 60 min. […] The plate was subsequently washed three times in PBST and once in PBS before incubation with Strep-HRP (300 ng/μl BSA, 0.05 ng/μl Strep-HRP (Jackson ImmunoResearch), 1×PBS) for 30 min at RT. The plate was washed three time in PBST and once in PBS before development with QuantaRed Enhanced Chemifluorescent HRP Substrate as described previously."}, "[3]": {"system": "CT26 (mouse colon adenocarcinoma) cells", "test": "Cell proliferation assay (CellTiter-Glo), CT26", "format": "cell-based", "settings": "Mus musculus, CT26, 144 h, 6 days"}, "PARP2 [4]": {"target": "T1, PARP2 (Homo sapiens (Human), UniProt Q9UGN5)", "T1 sequence (Q9UGN5 whole entry)": "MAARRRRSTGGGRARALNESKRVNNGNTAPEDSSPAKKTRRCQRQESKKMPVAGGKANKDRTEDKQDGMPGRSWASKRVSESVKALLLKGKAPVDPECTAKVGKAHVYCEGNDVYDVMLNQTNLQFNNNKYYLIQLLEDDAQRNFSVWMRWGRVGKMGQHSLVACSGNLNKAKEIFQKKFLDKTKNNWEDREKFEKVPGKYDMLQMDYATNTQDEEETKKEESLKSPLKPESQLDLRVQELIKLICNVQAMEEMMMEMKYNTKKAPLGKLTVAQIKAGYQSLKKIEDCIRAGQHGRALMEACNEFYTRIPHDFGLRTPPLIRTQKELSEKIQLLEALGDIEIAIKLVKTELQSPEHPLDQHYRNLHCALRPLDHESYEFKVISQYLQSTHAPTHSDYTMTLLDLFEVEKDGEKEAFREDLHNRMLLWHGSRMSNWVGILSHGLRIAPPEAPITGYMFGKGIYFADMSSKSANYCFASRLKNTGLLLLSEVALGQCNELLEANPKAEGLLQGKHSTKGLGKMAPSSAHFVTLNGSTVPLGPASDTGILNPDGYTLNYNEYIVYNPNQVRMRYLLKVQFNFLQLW", "test": "PASTA biochemical PARP screening assay, PARP2"}, "PARP8": {"target": "PARP8 (Homo sapiens (Human), UniProt Q8N3A8)", "test": "PASTA biochemical PARP screening assay, PARP8"}, "PARP10": {"target": "PARP10 (Homo sapiens (Human), UniProt Q53GL7)", "sequence (Q53GL7 whole entry, species assumed)": "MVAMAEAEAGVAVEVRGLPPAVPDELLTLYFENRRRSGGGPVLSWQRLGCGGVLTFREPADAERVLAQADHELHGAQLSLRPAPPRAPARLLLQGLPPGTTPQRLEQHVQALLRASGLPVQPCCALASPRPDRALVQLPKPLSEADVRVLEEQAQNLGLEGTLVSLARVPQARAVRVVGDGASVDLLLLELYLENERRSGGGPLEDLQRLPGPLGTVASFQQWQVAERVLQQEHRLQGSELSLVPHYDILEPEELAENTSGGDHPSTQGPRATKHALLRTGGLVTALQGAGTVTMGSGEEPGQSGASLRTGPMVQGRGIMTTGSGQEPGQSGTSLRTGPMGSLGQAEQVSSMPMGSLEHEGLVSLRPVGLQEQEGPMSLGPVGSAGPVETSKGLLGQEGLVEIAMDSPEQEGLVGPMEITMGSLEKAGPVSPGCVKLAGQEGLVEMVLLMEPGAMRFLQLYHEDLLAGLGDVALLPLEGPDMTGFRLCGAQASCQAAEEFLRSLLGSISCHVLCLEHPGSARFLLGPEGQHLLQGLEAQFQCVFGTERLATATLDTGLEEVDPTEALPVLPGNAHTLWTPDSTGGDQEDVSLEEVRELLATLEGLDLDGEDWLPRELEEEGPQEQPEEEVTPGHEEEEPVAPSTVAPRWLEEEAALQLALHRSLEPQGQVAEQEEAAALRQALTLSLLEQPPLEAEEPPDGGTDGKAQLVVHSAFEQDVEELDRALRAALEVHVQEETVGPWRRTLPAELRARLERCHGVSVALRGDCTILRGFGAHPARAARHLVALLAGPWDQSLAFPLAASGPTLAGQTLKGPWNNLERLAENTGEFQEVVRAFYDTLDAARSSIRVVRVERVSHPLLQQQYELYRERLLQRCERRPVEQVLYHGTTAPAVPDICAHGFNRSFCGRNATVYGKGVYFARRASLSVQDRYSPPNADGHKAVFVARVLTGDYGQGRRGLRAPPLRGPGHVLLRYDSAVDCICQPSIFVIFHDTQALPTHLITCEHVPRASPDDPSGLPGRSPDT", "test": "PASTA biochemical PARP screening assay, PARP10"}, "GFP-PARP7": {"target": "GFP-PARP7 (Homo sapiens (Human), UniProt Q7Z3E1)", "sequence (Q7Z3E1 whole entry)": "as the sequence (Q7Z3E1 whole entry) above", "test": "PARP7 MARylation in GFP-PARP7 expressing HEK 293T cells (western blot)", "format": "cell-based", "settings": "read-out: EC50, decrease in PARP7 MARylation"}, "PARP3": {"target": "PARP3 (Homo sapiens (Human), UniProt Q9Y6F1)", "test": "PASTA biochemical PARP screening assay, PARP3", "procedure": "For PARP3, PARP4bc, and PARP16, 200-350 ng of PARP was directly adhered to nickel coated 96-well plates for 60 min at 25° C. in PBR PARP3 was activated by Dnick 5'P as previously described (Langelier, Marie-France et al. Nucleic acids research vol. 42, 12 (2014): 7762-75.). The plate was washed three times with PBST, once with PBS, and once with PBR. Varying concentrations of inhibitor were pre-incubated with NAD^+ and added to the plate (final NAD^+ concentration: 100 μM for PARP3, PARP4bc; 400 μM for PARP16). The plate was incubated at 30° C. for 60 min, then washed three times with PBST before blocking with 5% Milk in PBST. […] The plate was then washed three times with PBST and once with PBS before developing as described previously."}, "PARP2 [5]": {"target": "T1, PARP2", "test": "PARP2 biochemical assay", "settings": "read-out: PARP2 IC50"}, "PARP12cat": {"target": "PARP12cat (Homo sapiens (Human), UniProt Q9H0J9)", "sequence (Q9H0J9 484-698)": "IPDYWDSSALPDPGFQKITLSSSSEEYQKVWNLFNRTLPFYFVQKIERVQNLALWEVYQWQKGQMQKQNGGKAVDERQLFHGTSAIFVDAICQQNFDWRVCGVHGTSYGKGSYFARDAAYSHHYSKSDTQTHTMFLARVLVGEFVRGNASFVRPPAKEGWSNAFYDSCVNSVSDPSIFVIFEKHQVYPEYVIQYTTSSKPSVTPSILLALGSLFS", "test": "PASTA biochemical PARP screening assay, PARP12cat"}, "PARP16": {"target": "PARP16 (Homo sapiens (Human), UniProt Q8N5Y8)", "test": "PASTA biochemical PARP screening assay, PARP16"}, "PARP4bc": {"target": "PARP4bc (Homo sapiens, UniProt Q9UKK3)", "test": "PASTA biochemical PARP screening assay, PARP4bc"}, "PARP15cat": {"target": "PARP15cat (Homo sapiens (Human), UniProt Q460N3)", "sequence (Q460N3 482-678)": "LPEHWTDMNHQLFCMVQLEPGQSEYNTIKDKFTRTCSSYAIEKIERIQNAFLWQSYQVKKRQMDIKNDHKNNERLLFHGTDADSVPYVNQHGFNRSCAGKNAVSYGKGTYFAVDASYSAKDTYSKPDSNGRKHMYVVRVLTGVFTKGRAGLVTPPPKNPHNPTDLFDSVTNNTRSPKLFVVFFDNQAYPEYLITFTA", "test": "PASTA biochemical PARP screening assay, PARP15cat"}, "IFN-β mRNA": {"system": "IFN-β mRNA", "test": "IFN-β mRNA by RT-qPCR in MEFs", "format": "cell-based, mouse", "settings": "100 nM alone"}, "[6]": {"system": "NCI-H1373 (human lung adenocarcinoma) cells", "test": "Cell proliferation assay (CellTiter-Glo), NCI-H1373", "format": "cell-based", "settings": "Homo sapiens, NCI-H1373, 144 h; 6 days, CellTiter-Glo; read-out: NCI-H1373 GI50"}, "NCI-H1373 cells": {"system": "NCI-H1373 cells", "test": "Cell Titer-Glo viability, NCI-H1373", "format": "cell-based", "method": "NCI-H1373 cells were seeded in a white 96-well plate (Corning) at a density of 1,000 cells per well. After 24 hours, cells were treated with PARP7 inhibitors and incubated at 37° C. for 6 days. Cell viability was assessed using CellTiter-Glo (CTG) 2.0 (Promega). After addition of the CTG reagent (following manufacturer protocol), the plate was incubated on an orbital shaker for 15 min (protected from light) at room temperature. Chemiluminescence was measured on a Spectra Max i3 (Molecular Devices), normalized to DMSO-treated wells, and IC50 values were calculated by non-linear regression (three-parameter fit) analysis using Prism 9 (GraphPad)."}},
  "note": "Where two headings read alike, the source gives them in different places.",
  "data": [
    {"compound": "CC#Cc1ccc2c(=O)[nH]nc(Cc3ccc(F)c(C(=O)N4CCN(c5ccc(C#N)cn5)CC4)c3)c2c1", "note": "[Example 10, 6-(4-(2-Fluoro-5-((4-oxo-7-(prop-1-ynyl)-3,4-dihydrophthalazin-1-yl)methyl)benzoyl)piperazin-1-yl)nicotinonitrile]", "values": [
      {"measurement": "IC50", "setting": "PARP6", "value": 775, "unit": "nM"},
      {"measurement": "IC50", "setting": "PARP14wwe", "value": 1040, "unit": "nM"},
      {"measurement": "GI50", "setting": "[1]", "value": "1000 to 5000", "unit": "nM"},
      {"measurement": "AHR ligand-mediated gene transcription (CYP1A1 mRNA)", "setting": "[2]", "value": "derepresses AHR ligand-mediated gene transcription"},
      {"measurement": "CYP1A1 mRNA levels", "setting": "AHR target gene CYP1A1; in the absence of TCDD", "value": "had no effect on CYP1A1 mRNA levels"},
      {"measurement": "CYP1A1 mRNA levels", "setting": "AHR target gene CYP1A1; in the presence of 1 nM TCDD", "value": "dramatically increased CYP1A1 mRNA levels"},
      {"measurement": "IC50", "setting": "PARP11", "value": 134, "unit": "nM"},
      {"measurement": "IC50", "setting": "PARP1; read-out: IC50 PARP1", "value": "> 3000", "unit": "nM"},
      {"measurement": "IC50", "setting": "PARP1; read-out: does not inhibit PARP1 up to", "value": "> 3000", "unit": "nM"},
      {"measurement": "IC50", "setting": "GST-tagged PARP7", "value": 13.7, "unit": "nM"},
      {"measurement": "selectivity for PARP7 over PARP2", "setting": "GST-tagged PARP7", "value": "~75", "unit": "fold"},
      {"measurement": "selectivity for PARP7 over PARP10 and PARP11", "setting": "GST-tagged PARP7", "value": "~10", "unit": "fold"},
      {"measurement": "selectivity for PARP7 over most PARP family members beyond PARP1 and PARP2", "setting": "GST-tagged PARP7", "value": "> 50", "unit": "fold"},
      {"measurement": "GI50", "setting": "[3]", "value": "> 5000", "unit": "nM"},
      {"measurement": "IC50", "setting": "PARP2 [4]", "value": 1020, "unit": "nM"},
      {"measurement": "IC50", "setting": "PARP8", "value": "> 3000", "unit": "nM"},
      {"measurement": "IC50", "setting": "PARP10", "value": 179, "unit": "nM"},
      {"measurement": "EC50", "setting": "GFP-PARP7", "value": 8, "unit": "nM"},
      {"measurement": "IC50", "setting": "PARP3", "value": "> 3000", "unit": "nM"},
      {"measurement": "IC50", "setting": "PARP2 [5]", "value": "100 to 500", "unit": "nM"},
      {"measurement": "IC50", "setting": "PARP12cat", "value": 762, "unit": "nM"},
      {"measurement": "IC50", "setting": "PARP16", "value": 1060, "unit": "nM"},
      {"measurement": "IC50", "setting": "PARP4bc", "value": "> 3000", "unit": "nM"},
      {"measurement": "IC50", "setting": "PARP15cat", "value": 770, "unit": "nM"},
      {"measurement": "increase in IFN-β mRNA", "setting": "IFN-β mRNA", "value": 3, "unit": "fold"},
      {"measurement": "GI50", "setting": "[6]", "value": "< 100", "unit": "nM"},
      {"measurement": "less potent than RBN-2397 on NCI-H1373", "setting": "NCI-H1373 cells", "value": "~6", "unit": "fold"},
      {"measurement": "EC50", "setting": "NCI-H1373 cells; Homo sapiens, NCI-H1373, 144 h, 6 days, CellTiter-Glo", "value": 104, "unit": "nM"}
    ]}
  ]
}
